Measured values as given in the supplement of paper PMC10307832.

Tests used:
Test in all cases: relative viability (nuclei count vs DMSO), 5 days (fraction); higher = more cells survive
NCI-H2347 = tested on: NCI-H2347
Method in brief: (§1)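 Relative viability equals treated-well nuclei counts divided by vehicle-well nuclei counts. Counts came from 4× images of lung cancer cell lines grown in 1536-well plates for 5 days after pin-tool dosing on the day after seeding. Dosing used one drug alone or a fixed anchor-drug dose plus five library-drug doses (not always all listed) in √10 steps, and values are medians of duplicate plates.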

H3255 = tested on: H3255
Method in brief: as §1

201T = tested on: 201T
Method in brief: as §1

NCI-H1793 = tested on: NCI-H1793
Method in brief: as §1

LU99A = tested on: LU99A
Method in brief: as §1

NCI-H1650 = tested on: NCI-H1650
Method in brief: as §1

A-427 = tested on: A-427
Method in brief: as §1

PC-14 = tested on: PC-14
Method in brief: as §1

LCLC-103H = tested on: LCLC-103H
Method in brief: as §1

COR-L23 = tested on: COR-L23
Method in brief: as §1

NCI-H727 = tested on: NCI-H727
Method in brief: as §1

SW 900 = tested on: SW 900
Method in brief: as §1

LC-2-ad = tested on: LC-2-ad
Method in brief: as §1

PC-3 [JPC-3] = tested on: PC-3 [JPC-3]
Method in brief: as §1

LK-2 = tested on: LK-2
Method in brief: as §1

NCI-H460 = tested on: NCI-H460
Method in brief: as §1

NCI-H23 = tested on: NCI-H23
Method in brief: as §1

LCLC-97TM1 = tested on: LCLC-97TM1
Method in brief: as §1

NCI-H2228 = tested on: NCI-H2228
Method in brief: as §1

HCC-44 = tested on: HCC-44
Method in brief: as §1

SW 1573 = tested on: SW 1573
Method in brief: as §1

For O=c1cc(N2CCOCC2)oc2c(-c3cccc4c3sc3ccccc34)cccc12 + CC(=O)c1c(C)c2cnc(Nc3ccc(N4CCNCC4)cn3)nc2n(C2CCCC2)c1=O [Palbociclib] (partner 0.5 µM), which relative viability (NCI-H2347; first compound 0.01 µM) is on record?
Its relative viability is 0.365.

And the relative viability (NCI-H2347; first compound 0.03162 µM)?
The relative viability was 0.414.

And the relative viability (NCI-H2347; first compound 0.1 µM)?
The relative viability was 0.445.

And the relative viability (NCI-H2347; first compound 0.3162 µM)?
Its relative viability is 0.424.

What about the relative viability (NCI-H2347; first compound 1 µM) of the same molecule?
The relative viability was 0.39.

And the relative viability (H3255; first compound 0.01 µM)?
Its relative viability is 0.314.

And the relative viability (H3255; first compound 0.03162 µM)?
Its relative viability is 0.325.

And the relative viability (H3255; first compound 0.1 µM)?
The relative viability was 0.306.

And the relative viability (H3255; first compound 0.3162 µM)?
The relative viability was 0.314.

What about the relative viability (H3255; first compound 1 µM) of the same molecule?
The relative viability was 0.312.

What about the relative viability (201T; first compound 0.01 µM) of the same molecule?
The relative viability was 0.346.

And the relative viability (201T; first compound 0.03162 µM)?
The relative viability was 0.356.

And the relative viability (201T; first compound 0.1 µM)?
Its relative viability is 0.356.

What about the relative viability (201T; first compound 0.3162 µM) of the same molecule?
The relative viability was 0.342.

What about the relative viability (201T; first compound 1 µM) of the same molecule?
The relative viability was 0.353.

And the relative viability (NCI-H1793; first compound 0.01 µM)?
Its relative viability is 0.299.

And the relative viability (NCI-H1793; first compound 0.03162 µM)?
The relative viability was 0.295.

And the relative viability (NCI-H1793; first compound 0.1 µM)?
The relative viability was 0.314.

And the relative viability (NCI-H1793; first compound 0.3162 µM)?
Its relative viability is 0.266.

What about the relative viability (NCI-H1793; first compound 1 µM) of the same molecule?
The relative viability was 0.234.

What about the relative viability (LU99A; first compound 0.01 µM) of the same molecule?
Its relative viability is 0.393.

What about the relative viability (LU99A; first compound 0.03162 µM) of the same molecule?
Its relative viability is 0.414.

And the relative viability (LU99A; first compound 0.1 µM)?
Its relative viability is 0.414.

What about the relative viability (LU99A; first compound 0.3162 µM) of the same molecule?
Its relative viability is 0.379.

What about the relative viability (LU99A; first compound 1 µM) of the same molecule?
Its relative viability is 0.488.

And the relative viability (NCI-H1650; first compound 0.01 µM)?
The relative viability was 0.299.

What about the relative viability (NCI-H1650; first compound 0.03162 µM) of the same molecule?
The relative viability was 0.363.

What about the relative viability (NCI-H1650; first compound 0.1 µM) of the same molecule?
Its relative viability is 0.346.

What about the relative viability (NCI-H1650; first compound 0.3162 µM) of the same molecule?
The relative viability was 0.368.

And the relative viability (NCI-H1650; first compound 1 µM)?
The relative viability was 0.317.

What about the relative viability (A-427; first compound 0.01 µM) of the same molecule?
Its relative viability is 0.533.

And the relative viability (A-427; first compound 0.03162 µM)?
The relative viability was 0.52.

And the relative viability (A-427; first compound 0.1 µM)?
Its relative viability is 0.528.

And the relative viability (A-427; first compound 0.3162 µM)?
The relative viability was 0.508.

What about the relative viability (A-427; first compound 1 µM) of the same molecule?
Its relative viability is 0.513.

What about the relative viability (PC-14; first compound 0.01 µM) of the same molecule?
Its relative viability is 0.436.

And the relative viability (PC-14; first compound 0.03162 µM)?
The relative viability was 0.479.

And the relative viability (PC-14; first compound 0.1 µM)?
The relative viability was 0.541.

And the relative viability (PC-14; first compound 0.3162 µM)?
Its relative viability is 0.581.

What about the relative viability (PC-14; first compound 1 µM) of the same molecule?
Its relative viability is 0.596.

And the relative viability (LCLC-103H; first compound 0.01 µM)?
Its relative viability is 0.446.

What about the relative viability (LCLC-103H; first compound 0.03162 µM) of the same molecule?
Its relative viability is 0.439.

And the relative viability (LCLC-103H; first compound 0.1 µM)?
The relative viability was 0.513.

What about the relative viability (LCLC-103H; first compound 0.3162 µM) of the same molecule?
Its relative viability is 0.514.

And the relative viability (LCLC-103H; first compound 1 µM)?
Its relative viability is 0.43.

And the relative viability (COR-L23; first compound 0.01 µM)?
Its relative viability is 0.289.

And the relative viability (COR-L23; first compound 0.03162 µM)?
Its relative viability is 0.303.

What about the relative viability (COR-L23; first compound 0.1 µM) of the same molecule?
Its relative viability is 0.317.

What about the relative viability (COR-L23; first compound 0.3162 µM) of the same molecule?
Its relative viability is 0.301.

What about the relative viability (COR-L23; first compound 1 µM) of the same molecule?
Its relative viability is 0.316.

And the relative viability (NCI-H727; first compound 0.01 µM)?
The relative viability was 0.66.

What about the relative viability (NCI-H727; first compound 0.03162 µM) of the same molecule?
Its relative viability is 0.6.

And the relative viability (NCI-H727; first compound 0.1 µM)?
The relative viability was 0.624.

And the relative viability (NCI-H727; first compound 0.3162 µM)?
Its relative viability is 0.699.

And the relative viability (NCI-H727; first compound 1 µM)?
Its relative viability is 0.737.

And the relative viability (SW 900; first compound 0.03162 µM)?
Its relative viability is 0.473.

What about the relative viability (SW 900; first compound 0.1 µM) of the same molecule?
Its relative viability is 0.567.

And the relative viability (SW 900; first compound 0.3162 µM)?
Its relative viability is 0.507.

And the relative viability (SW 900; first compound 1 µM)?
The relative viability was 0.517.

What about the relative viability (LC-2-ad; first compound 0.01 µM) of the same molecule?
The relative viability was 0.504.

What about the relative viability (LC-2-ad; first compound 0.03162 µM) of the same molecule?
The relative viability was 0.5.

What about the relative viability (LC-2-ad; first compound 0.1 µM) of the same molecule?
The relative viability was 0.572.

And the relative viability (LC-2-ad; first compound 0.3162 µM)?
The relative viability was 0.493.

What about the relative viability (LC-2-ad; first compound 1 µM) of the same molecule?
Its relative viability is 0.554.

And the relative viability (PC-3 [JPC-3]; first compound 0.01 µM)?
The relative viability was 0.548.

And the relative viability (PC-3 [JPC-3]; first compound 0.03162 µM)?
Its relative viability is 0.519.

And the relative viability (PC-3 [JPC-3]; first compound 0.1 µM)?
The relative viability was 0.306.

What about the relative viability (PC-3 [JPC-3]; first compound 0.3162 µM) of the same molecule?
Its relative viability is 0.557.

What about the relative viability (PC-3 [JPC-3]; first compound 1 µM) of the same molecule?
The relative viability was 0.511.

What about the relative viability (LK-2; first compound 0.01 µM) of the same molecule?
The relative viability was 0.83.

And the relative viability (LK-2; first compound 0.03162 µM)?
Its relative viability is 0.768.

And the relative viability (LK-2; first compound 0.1 µM)?
The relative viability was 0.587.

What about the relative viability (LK-2; first compound 0.3162 µM) of the same molecule?
Its relative viability is 0.638.

What about the relative viability (LK-2; first compound 1 µM) of the same molecule?
The relative viability was 0.77.

And the relative viability (NCI-H460; first compound 0.01 µM)?
Its relative viability is 0.178.

What about the relative viability (NCI-H460; first compound 0.03162 µM) of the same molecule?
Its relative viability is 0.18.

And the relative viability (NCI-H460; first compound 0.1 µM)?
The relative viability was 0.198.

What about the relative viability (NCI-H460; first compound 0.3162 µM) of the same molecule?
Its relative viability is 0.215.

And the relative viability (NCI-H460; first compound 1 µM)?
Its relative viability is 0.135.

And the relative viability (NCI-H23; first compound 0.01 µM)?
Its relative viability is 0.464.

And the relative viability (NCI-H23; first compound 0.03162 µM)?
The relative viability was 0.524.

And the relative viability (NCI-H23; first compound 0.3162 µM)?
Its relative viability is 0.485.

And the relative viability (NCI-H23; first compound 1 µM)?
Its relative viability is 0.473.

And the relative viability (LCLC-97TM1; first compound 0.01 µM)?
Its relative viability is 0.218.

And the relative viability (LCLC-97TM1; first compound 0.03162 µM)?
The relative viability was 0.194.

And the relative viability (LCLC-97TM1; first compound 0.1 µM)?
Its relative viability is 0.241.

What about the relative viability (LCLC-97TM1; first compound 0.3162 µM) of the same molecule?
The relative viability was 0.21.

What about the relative viability (LCLC-97TM1; first compound 1 µM) of the same molecule?
The relative viability was 0.218.

What about the relative viability (NCI-H2228; first compound 0.01 µM) of the same molecule?
Its relative viability is 0.943.

And the relative viability (NCI-H2228; first compound 0.03162 µM)?
Its relative viability is 0.749.

What about the relative viability (NCI-H2228; first compound 0.1 µM) of the same molecule?
Its relative viability is 0.802.

And the relative viability (NCI-H2228; first compound 0.3162 µM)?
Its relative viability is 0.683.

And the relative viability (NCI-H2228; first compound 1 µM)?
The relative viability was 0.83.

And the relative viability (HCC-44; first compound 0.01 µM)?
Its relative viability is 1.01.

What about the relative viability (HCC-44; first compound 0.03162 µM) of the same molecule?
The relative viability was 1.02.

And the relative viability (HCC-44; first compound 0.1 µM)?
Its relative viability is 0.955.

And the relative viability (HCC-44; first compound 0.3162 µM)?
The relative viability was 0.991.

And the relative viability (HCC-44; first compound 1 µM)?
Its relative viability is 1.02.

And the relative viability (SW 1573; first compound 0.01 µM)?
Its relative viability is 0.349.

What about the relative viability (SW 1573; first compound 0.03162 µM) of the same molecule?
Its relative viability is 0.436.

And the relative viability (SW 1573; first compound 0.1 µM)?
The relative viability was 0.408.

What about the relative viability (SW 1573; first compound 0.3162 µM) of the same molecule?
The relative viability was 0.349.

And the relative viability (SW 1573; first compound 1 µM)?
Its relative viability is 0.394.
